Test results reported in publication PMC9030166, “Natural Phaeosphaeride A Derivatives Overcome Drug Resistance of Tumor Cells and Modulate Signaling Pathways” (Pharmaceuticals, 2022).

What was measured:
A431 cells = assay: IC50 on A431 cells (xCelligence RTCA cell index); format: cell-based; conditions: Homo sapiens, A-431
Excerpt: A431 cells are characterized by a high inducibility of transcription factors STAT3 and STAT5. In turn, phaeosphaeride A and its derivatives are probably inhibitors of the STAT3 gene. Therefore, the A431 cell line was chosen as a model for searching for possible targets for the action of phaeosphaeride A derivatives. Table 7 presents IC50 data for phaeosphaeride A derivatives on A431 cells.
(§1) The effect of various concentrations of PPA derivatives on the cell culture was studied using xCelligence RTCA equipment (AceaBioscience, San Diego, CA, USA). The concentration closest to the IC50 (10 μM) was chosen as the experimental concentration. The selected concentration of phaeosphaeride A derivatives allows for the assessment of the early effect of compounds on cells and compares their effectiveness. In this experiment, the signaling pathways Akt (pSer473), p70S6K (pThr412), NFkB (p65-pSer536), and CREB (pSer133) were not activated (Table 8). The stress-activated signaling pathways ERK/MAP kinase 1/2 (pThr185/pTyr187), JNK (pThr183/pTyr185), and p38 (pThr180/pTyr182) were activated for these compounds.
To determine the integral cellular response using the xCelligence RTCA equipment (AceaBioscience, Santa Clara, CA, USA), 20 thousand cells were inoculated into a well of a specialized plate allowing the determination of the cell index in real time and cultured in complete growth medium. The next day after the seeding, the medium was replaced with an experimental one (compounds at concentrations of […]). The cell index was monitored for 3 days after the addition of the xenobiotic. The concentration closest to the IC50 (10 μM) was chosen as the experimental concentration.

STAT3 (pSer727) = assay: MILLIPLEX MAP 9-Plex, STAT3 active form in A431 lysates; format: cell-based, human; conditions: A431 cell lysates, 10 μM, 1 h, M ± mx; control 70.7 ± 18.3
Excerpt: (§2) We used the MILLIPLEX MAP Multi-Pathway Magnetic Bead 9-Plex-Cell Signaling Multiplex Assay, which allows the simultaneous detection of nine phosphorylated proteins that are markers of the main intracellular signaling pathways (phosphorylation site is indicated in parentheses), a universal transcription factor that controls the expression of immune response genes; apoptosis and cell cycle NFκB (pS536); cAMP-dependent transcription factor (CREB (pS133); mitogen-activated kinase p38 (pT180/pY182); stress-activated protein kinase JNK (pT183/pY185); ribosomal […]; transcription factors STAT3 (pS727) and STAT5A/B (pY694/699); protein kinase B (Akt) (pS473); and kinase regulated by extracellular signals ERK1/2 (pT185/pY187).
as §1
(§3) We used a MILLIPLEX MAP Multi-Pathway Magnetic Bead 9-Plex-Cell Signaling Multiplex Assay kit (Merck/Millipore), according to the manufacturer’s protocol. A431 cells were cultured in DMEM with 10% FBS in 24-well plates. Compounds were added to the subconfluent cells at a concentration of 10 μM in DMEM medium for 1 h. Each compound was added in 5 experimental repeats. Cell lysates were prepared with lysis buffer (Millipore) with protease inhibitors (Complete, Roche); the protein concentration in the lysates was determined by the Lowry method. In samples equalized in protein concentration, the active forms of kinase cascades were determined using a Bio-Plex 200 fluorescent analyzer (Bio-Rad).

[1] = tested on: ERK 1/2 (pThr185/pTyr187); assay: MILLIPLEX MAP 9-Plex, ERK 1/2 active form in A431 lysates; format: cell-based, human; conditions: 10 μM
Excerpt: as §2, §1, §3

Akt (pSer473) = assay: MILLIPLEX MAP 9-Plex, Akt active form in A431 lysates; format: cell-based, human; conditions: A431 cell lysates, 10 μM, 1 h, M ± mx; control 76.4 ± 16.9
Excerpt: as §2, §1, §3

p70S6K (pThr389/412) = assay: MILLIPLEX MAP 9-Plex, p70S6K active form in A431 lysates; format: cell-based, human; conditions: A431 cell lysates, 10 μM, 1 h, M ± mx; control 39.9 ± 7.2
Excerpt: as §2, §1, §3

STAT3/DNA binding = molecular target: STAT3/DNA binding; design: method as in PMID 18668431; conditions: read-out: IC50 value, inhibition of STAT3/DNA binding; cited from earlier work
p38 (pThr180/pTyr182) = assay: MILLIPLEX MAP 9-Plex, p38 active form in A431 lysates; format: cell-based, human; conditions: 10 μM
Excerpt: as §2, §1, §3

STAT5 (pTyr694/699) = assay: MILLIPLEX MAP 9-Plex, STAT5 active form in A431 lysates; format: cell-based, human; conditions: A431 cell lysates, 10 μM, 1 h, M ± mx; control 44.2 ± 10.2
Excerpt: as §2, §1, §3

JNK (pThr183/pTyr185) = assay: MILLIPLEX MAP 9-Plex, JNK active form in A431 lysates; format: cell-based, human; conditions: 10 μM
Excerpt: as §2, §1, §3

CREB (pSer133) = assay: MILLIPLEX MAP 9-Plex, CREB active form in A431 lysates; format: cell-based, human; conditions: A431 cell lysates, 10 μM, 1 h, M ± mx; control 154.5 ± 34.2
Excerpt: as §2, §1, §3

Compound: C=C1C2=C(C(=O)N1OC)[C@H](O)[C@@](C)(O)[C@H](CCCCC)O2 [PPA, phaeosphaeride A]
- IC50 (A431 cells): > 50 µM
- STAT3 (pSer727) fluorescence intensity (STAT3 (pSer727)): 128.8 ± 2.4 *↑ rel. units
- ERK ½ (pThr185/pTyr187) fluorescence intensity ([1]; A431 cell lysates, 1 h, M ± mx, control 839.7 ± 248.9): 995.4 ± 46.5 rel. units
- activation of signaling pathway ERK/MAP kinase 1/2 (pThr185/pTyr187), in words ([1]; A431 cells): only slightly activated
- Akt (pSer473) fluorescence intensity (Akt (pSer473)): 123.5 ± 4.9 *↑ rel. units
- p70S6K (pThr389/412) fluorescence intensity (p70S6K (pThr389/412)): 46.1 ± 2.9 rel. units
- IC50 (STAT3/DNA binding): 610 µM
- p38 (pThr180/pTyr182) fluorescence intensity (p38 (pThr180/pTyr182); A431 cell lysates, 1 h, M ± mx, control 567.7 ± 266.6): 1459.1 ± 117.6 *↑ rel. units
- activation of signaling pathway p38 (pThr180/pTyr182), in words (p38 (pThr180/pTyr182); A431 cells): only slightly activated
- STAT5 (pTyr694/699) fluorescence intensity (STAT5 (pTyr694/699)): 82.5 ± 3.5 *↑ rel. units
- JNK (pThr183/pTyr185) fluorescence intensity (JNK (pThr183/pTyr185); A431 cell lysates, 1 h, M ± mx, control 50.9 ± 10.5): 132.8 ± 9.1 *↑ rel. units
- activation of signaling pathway JNK (pThr183/pTyr185), in words (JNK (pThr183/pTyr185); A431 cells): only slightly activated
- CREB (pSer133) fluorescence intensity (CREB (pSer133)): 291.0 ± 32.8 *↑ rel. units
